Data reported in PubChem BioAssay (NCI).
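Growth conditions: 96-well plates. Treatment: test compound, 48 hours, 5 concentrations. Analysis: linear interpolation between bracketing concentrations; unreached endpoints set to highest concentration. Abbreviation: GI50, concentration required for 50% inhibition of growth. TGI: total growth inhibition.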

Legend:
Assay in all cases: DTP human tumour cell line panel, 48 h
786-0 renal = test system: 786-0 renal
A549 NSCLC = test system: A549 NSCLC
ACHN renal = test system: ACHN renal
BT-549 breast = test system: BT-549 breast
CAKI-1 renal = test system: CAKI-1 renal
CCRF-CEM leukemia = test system: CCRF-CEM leukemia
COLO 205 colon = test system: COLO 205 colon
DU-145 prostate = test system: DU-145 prostate
EKVX NSCLC = test system: EKVX NSCLC
HCT-116 colon = test system: HCT-116 colon
HCT-15 colon = test system: HCT-15 colon
HL-60(TB) leukemia = test system: HL-60(TB) leukemia
HOP-62 NSCLC = test system: HOP-62 NSCLC
HOP-92 NSCLC = test system: HOP-92 NSCLC
HT29 colon = test system: HT29 colon
IGROV1 ovarian = test system: IGROV1 ovarian
K-562 leukemia = test system: K-562 leukemia
KM12 colon = test system: KM12 colon
LOX IMVI melanoma = test system: LOX IMVI melanoma
M14 melanoma = test system: M14 melanoma
MALME-3M melanoma = test system: MALME-3M melanoma
MCF7 breast = test system: MCF7 breast
MDA-MB-231 breast = test system: MDA-MB-231 breast
MDA-MB-435 = test system: MDA-MB-435
MOLT-4 leukemia = test system: MOLT-4 leukemia
NCI-H226 lung = test system: NCI-H226 lung
NCI-H23 lung = test system: NCI-H23 lung
NCI-H460 lung = test system: NCI-H460 lung
NCI/ADR-RES ovarian = test system: NCI/ADR-RES ovarian
OVCAR-3 ovarian = test system: OVCAR-3 ovarian
OVCAR-4 ovarian = test system: OVCAR-4 ovarian
OVCAR-5 ovarian = test system: OVCAR-5 ovarian
OVCAR-8 ovarian = test system: OVCAR-8 ovarian
PC-3 prostate = test system: PC-3 prostate
RXF 393 renal = test system: RXF 393 renal
SF-268 CNS = test system: SF-268 CNS
SF-295 CNS = test system: SF-295 CNS
SF-539 CNS = test system: SF-539 CNS
SK-MEL-2 melanoma = test system: SK-MEL-2 melanoma
SK-MEL-28 melanoma = test system: SK-MEL-28 melanoma
SK-MEL-5 melanoma = test system: SK-MEL-5 melanoma
SK-OV-3 ovarian = test system: SK-OV-3 ovarian
SN12C renal = test system: SN12C renal
SNB-19 CNS = test system: SNB-19 CNS
SNB-75 CNS = test system: SNB-75 CNS
SR leukemia = test system: SR leukemia
SW-620 colon = test system: SW-620 colon
T-47D breast = test system: T-47D breast
TK-10 renal = test system: TK-10 renal
U251 CNS = test system: U251 CNS
UACC-257 melanoma = test system: UACC-257 melanoma
UACC-62 melanoma = test system: UACC-62 melanoma
UO-31 renal = test system: UO-31 renal

`Cn1ncc2c(Sc3ccc(Cl)cc3)ncnc21` gave a GI50 (786-0 renal) of 44.1 µM, a TGI (786-0 renal) greater than 100 µM and a GI50 (A549 NSCLC) of 18.8 µM. It also gave a TGI (A549 NSCLC) greater than 100 µM, a GI50 (ACHN renal) greater than 100 µM and a TGI (ACHN renal) greater than 100 µM. For the same compound, the GI50 (BT-549 breast) was 27.3 µM, the TGI (BT-549 breast) was greater than 100 µM and the GI50 (CAKI-1 renal) was 15.4 µM. It also gave a TGI (CAKI-1 renal) greater than 100 µM, a GI50 (CCRF-CEM leukemia) of 4.8 µM and a TGI (CCRF-CEM leukemia) greater than 100 µM. It also gave a GI50 (COLO 205 colon) greater than 100 µM, a TGI (COLO 205 colon) greater than 100 µM and a GI50 (DU-145 prostate) of 36.1 µM. The TGI (DU-145 prostate) was greater than 100 µM, the GI50 (EKVX NSCLC) was 10.5 µM and the TGI (EKVX NSCLC) was greater than 100 µM. The GI50 (HCT-116 colon) was 55.1 µM, the TGI (HCT-116 colon) was greater than 100 µM and the GI50 (HCT-15 colon) was greater than 100 µM. It also gave a TGI (HCT-15 colon) greater than 100 µM, a GI50 (HL-60(TB) leukemia) of 11.3 µM and a TGI (HL-60(TB) leukemia) greater than 100 µM. The GI50 (HOP-62 NSCLC) was 28.8 µM, the TGI (HOP-62 NSCLC) was greater than 100 µM and the GI50 (HOP-92 NSCLC) was 3.31 µM. The TGI (HOP-92 NSCLC) was greater than 100 µM, the GI50 (HT29 colon) was greater than 100 µM and the TGI (HT29 colon) was greater than 100 µM. For the same compound, the GI50 (IGROV1 ovarian) was 4.36 µM, the TGI (IGROV1 ovarian) was 49.8 µM and the GI50 (K-562 leukemia) was greater than 100 µM. It also gave a TGI (K-562 leukemia) greater than 100 µM, a GI50 (KM12 colon) of 11.6 µM and a TGI (KM12 colon) greater than 100 µM. It also gave a GI50 (LOX IMVI melanoma) of 12 µM, a TGI (LOX IMVI melanoma) greater than 100 µM and a GI50 (M14 melanoma) of 93.5 µM. The TGI (M14 melanoma) was greater than 100 µM, the GI50 (MALME-3M melanoma) was 57.4 µM and the TGI (MALME-3M melanoma) was greater than 100 µM. It also gave a GI50 (MCF7 breast) greater than 100 µM, a TGI (MCF7 breast) greater than 100 µM and a GI50 (MDA-MB-231 breast) of 13.2 µM. For the same compound, the TGI (MDA-MB-231 breast) was greater than 100 µM, the GI50 (MDA-MB-435) was 22.5 µM and the TGI (MDA-MB-435) was greater than 100 µM. The GI50 (MOLT-4 leukemia) was 10.3 µM, the TGI (MOLT-4 leukemia) was greater than 100 µM and the GI50 (NCI-H226 lung) was 36.5 µM. For the same compound, the TGI (NCI-H226 lung) was greater than 100 µM, the GI50 (NCI-H23 lung) was 15.9 µM and the TGI (NCI-H23 lung) was greater than 100 µM. It also gave a GI50 (NCI-H460 lung) of 21.3 µM, a TGI (NCI-H460 lung) greater than 100 µM and a GI50 (NCI/ADR-RES ovarian) of 21.7 µM. The TGI (NCI/ADR-RES ovarian) was greater than 100 µM, the GI50 (OVCAR-3 ovarian) was 36.5 µM and the TGI (OVCAR-3 ovarian) was greater than 100 µM. For the same compound, the GI50 (OVCAR-4 ovarian) was 36 µM, the TGI (OVCAR-4 ovarian) was greater than 100 µM and the GI50 (OVCAR-5 ovarian) was greater than 100 µM. For the same compound, the TGI (OVCAR-5 ovarian) was greater than 100 µM, the GI50 (OVCAR-8 ovarian) was greater than 100 µM and the TGI (OVCAR-8 ovarian) was greater than 100 µM. For the same compound, the GI50 (PC-3 prostate) was 7.03 µM, the TGI (PC-3 prostate) was greater than 100 µM and the GI50 (RXF 393 renal) was 98.4 µM. The TGI (RXF 393 renal) was greater than 100 µM, the GI50 (SF-268 CNS) was 7.26 µM and the TGI (SF-268 CNS) was greater than 100 µM. The GI50 (SF-295 CNS) was 9.58 µM, the TGI (SF-295 CNS) was greater than 100 µM and the GI50 (SF-539 CNS) was 68.1 µM. The TGI (SF-539 CNS) was greater than 100 µM, the GI50 (SK-MEL-2 melanoma) was greater than 100 µM and the TGI (SK-MEL-2 melanoma) was greater than 100 µM. It also gave a GI50 (SK-MEL-28 melanoma) greater than 100 µM, a TGI (SK-MEL-28 melanoma) greater than 100 µM and a GI50 (SK-MEL-5 melanoma) of 51.5 µM. It also gave a TGI (SK-MEL-5 melanoma) greater than 100 µM, a GI50 (SK-OV-3 ovarian) of 67.9 µM and a TGI (SK-OV-3 ovarian) greater than 100 µM. It also gave a GI50 (SN12C renal) of 7.37 µM, a TGI (SN12C renal) greater than 100 µM and a GI50 (SNB-19 CNS) of 26.9 µM. The TGI (SNB-19 CNS) was greater than 100 µM, the GI50 (SNB-75 CNS) was 22.9 µM and the TGI (SNB-75 CNS) was greater than 100 µM. For the same compound, the GI50 (SR leukemia) was 20.6 µM, the TGI (SR leukemia) was greater than 100 µM and the GI50 (SW-620 colon) was greater than 100 µM. The TGI (SW-620 colon) was greater than 100 µM, the GI50 (T-47D breast) was 14.4 µM and the TGI (T-47D breast) was greater than 100 µM. The GI50 (TK-10 renal) was greater than 100 µM, the TGI (TK-10 renal) was greater than 100 µM and the GI50 (U251 CNS) was 16.2 µM. For the same compound, the TGI (U251 CNS) was greater than 100 µM, the GI50 (UACC-257 melanoma) was greater than 100 µM and the TGI (UACC-257 melanoma) was greater than 100 µM. For the same compound, the GI50 (UACC-62 melanoma) was 77.8 µM, the TGI (UACC-62 melanoma) was greater than 100 µM and the GI50 (UO-31 renal) was 5.53 µM. For the same compound, the TGI (UO-31 renal) was greater than 100 µM.
